Reference: US12391674B2, “Heterocyclic compounds for the treatment of epilepsy” (OTSUKA PHARMACEUTICAL CO., LTD., priority 2018, dated 2025)

The compounds below were run on DBA/2 mice (assay: Audiogenic seizure model). Settings: Mus musculus, po, 1 h, read-out: Seizure suppression.
Format: in vivo
Procedure: The animal model used in this test is a phenotype model for partial seizure (including secondary generalized seizure) and generalized tonic-clonic seizure, and has high clinical predictability. This test was performed in accordance with the report of De Sarro et al (Br J Pharmacol. 1988 February; 93 (2): 247-56. Anticonvulsant effects of some calcium entry blockers in DBA/2 mice. De Sarro G B, Meldrum B S, Nistico G.).
In this test example, the example compounds shown in Tables 3-1 to 3-3 below were used as test compounds.
The test compounds were suspended in 5% gum arabic/distilled water (w/v), and administered by forced oral administration to male and female DBA/2 mice (Japan SLC, Inc., 3 weeks old, 8 per group) at a dose of 30 mg/kg. After one hour of the oral administration of the test compound, each mouse was placed in a transparent acrylic cylinder 30 cm high and 23 cm in diameter, and 30 seconds were allowed for habituation. Then, they were exposed to auditory stimulation (12.6 kHz, 100-110 dB) for 1 minute or until a tonic seizure occurred.
The seizure response was assessed using the following scale, 0: no seizure, 1: wild running, 2: clonic seizure, 3: tonic seizure and 4: respiratory arrest. The maximum response was recorded as the seizure severity score.
The seizure suppression rate for each compound administration group was calculated according to the following formula.
Here, a rate of seizure suppression of 90% or more was expressed as “A”, a rate of seizure suppression of 70% or more and less than 90% was expressed as “B”, and a rate of seizure suppression of 50% or more and less than 70% was expressed as “C”.

Row | Structure (SMILES) | inhibition in vivo at 30 mg/kg
1 | Cc1ncccc1-c1cnc(Oc2cc(F)cc(F)c2)nc1 [Example 56] | > 90%
2 | Fc1ccc(Oc2ncc(-c3ccc(C(F)(F)F)nn3)cn2)cc1 [Example 57] | > 90%

Same assay, conditions: Mus musculus; DBA/2 mice, oral, dose 3 mg/kg, auditory stimulation 1 hour after administration; read-out: Seizure suppression

Row | Structure (SMILES) | inhibition in vivo at 3 mg/kg
3 | COc1ccc(-c2cnc(Oc3cccc(C(F)(F)F)c3)nc2)nn1 [Example 12] | > 90%
4 | Cc1ccc(-c2cnc(Oc3cccc(C(F)(F)F)c3)nc2)nn1 [Example 13] | > 90%

Same assay, conditions: Mus musculus; DBA/2 mice, oral, dose 5 mg/kg, auditory stimulation 1 hour after administration; read-out: Seizure suppression

Row | Structure (SMILES) | inhibition in vivo at 5 mg/kg
5 | c1ccc(Oc2ncc(-c3ccncc3)cn2)cc1 [Example 9] | > 90%
6 | Nc1ccc(-c2cnc(Oc3ccccc3F)nc2)cn1 [Example 45] | > 90%
7 | Cc1cccc(Oc2ncc(-c3ccc(=O)[nH]c3)cn2)c1 [Example 106, 5-(2-(m-Tolyloxy)Pyrimidin-5-Yl)Pyridin-2 (1H)-One] | > 90%

Same assay, conditions: Mus musculus; DBA/2 mice, oral, dose 30 mg/kg, auditory stimulation 1 hour after administration; read-out: Seizure suppression

Row | Structure (SMILES) | inhibition in vivo at 30 mg/kg
8 | FC(F)(F)c1cccc(Oc2ncc(-c3cccnc3)cn2)c1 [Example 14] | > 90%
9 | Cc1ccc(-c2cnc(Oc3cccc(C(F)(F)F)c3)nc2)cn1 [Example 15] | > 90%
10 | COc1ccc(-c2cnc(Oc3cccc(C(F)(F)F)c3)nc2)cn1 [Example 16] | > 90%
11 | Cc1ccc(-c2cnc(Oc3cc(F)cc(F)c3)nc2)nn1 [Example 17] | > 90%
12 | Fc1cc(F)cc(Oc2ncc(-c3cccnc3)cn2)c1 [Example 18] | > 90%
13 | COc1ccc(-c2cnc(Oc3cc(F)cc(F)c3)nc2)nn1 [Example 19] | > 90%
14 | Nc1ccc(-c2cnc(Oc3ccc(F)cc3)nc2)nn1 [Example 20] | > 90%
15 | Cc1ccc(-c2cnc(Oc3cccc(F)c3)nc2)nn1 [Example 21] | > 90%
16 | COc1cc(-c2cnc(Oc3ccccc3)nc2)ccn1 [Example 23] | > 90%
17 | Cc1ccc(-c2cnc(Oc3ccccc3F)nc2)nn1 [Example 25] | > 90%
18 | Cc1cccc(Oc2ncc(-c3ccc(C)nc3)cn2)c1 [Example 28] | > 90%
19 | COc1ccc(-c2cnc(Oc3cccc(C)c3)nc2)cn1 [Example 29] | > 90%
20 | Fc1cccc(Oc2ncc(-c3ccnnc3)cn2)c1 [Example 32] | > 90%
21 | Cc1cccc(Oc2ncc(-c3cccnc3)cn2)c1 [Example 35] | > 90%
22 | FC(F)c1ccc(-c2cnc(Oc3ccccc3)nc2)cn1 [Example 37] | > 90%
23 | Nc1ccc(-c2cnc(Oc3c(F)cccc3F)nc2)nn1 [Example 39] | > 90%
24 | Nc1ccc(-c2cnc(Oc3cc(F)cc(F)c3)nc2)nn1 [Example 41] | > 90%
25 | Nc1ccc(-c2cnc(Oc3cccc(F)c3)nc2)cn1 [Example 43] | > 90%
26 | Nc1ccc(-c2cnc(Oc3ccc(F)cc3)nc2)cn1 [Example 44] | > 90%
27 | Fc1cccc(Oc2ncc(-c3ccc(C(F)(F)F)nn3)cn2)c1 [Example 46] | > 90%
28 | Cc1ncccc1-c1cnc(Oc2cccc(F)c2)nc1 [Example 47] | > 90%
29 | Nc1ccc(-c2cnc(Oc3cccc(OC(F)(F)F)c3)nc2)cn1 [Example 48] | > 90%
30 | Cc1ncccc1-c1cnc(Oc2ccc(F)cc2)nc1 [Example 49] | > 90%

Row | Structure (SMILES) | inhibition in vivo at 30 mg/kg
31 | Clc1ccc(-c2cnc(Oc3ccccc3)nc2)cn1 [Example 51] | > 90%
32 | Nc1ccc(-c2cnc(Oc3c(F)cccc3F)nc2)cn1 [Example 52] | > 90%
33 | Nc1ccc(-c2cnc(Oc3cc(F)cc(F)c3)nc2)cn1 [Example 53] | > 90%
34 | Cc1ncccc1-c1cnc(Oc2c(F)cccc2F)nc1 [Example 54] | > 90%
35 | [O-][n+]1cccc(-c2cnc(Oc3ccccc3F)nc2)c1 [Example 60, 3-(2-(2-Fluorophenoxy)Pyrimidin-5-Yl)Pyridine 1-Oxide] | > 90%
36 | [O-][n+]1cccc(-c2cnc(Oc3cccc(F)c3)nc2)c1 [Example 61] | > 90%
37 | [O-][n+]1cccc(-c2cnc(Oc3ccc(F)cc3)nc2)c1 [Example 62] | > 90%
38 | COc1ccc(-c2cnc(Oc3cc(F)ccc3F)nc2)nn1 [Example 63, 3-(2-(2,5-Difluorophenoxy)Pyrimidin-5-Yl)-6-Methoxypyridazine] | > 90%
39 | COc1ccc(-c2cnc(Oc3ccc(F)cc3F)nc2)nn1 [Example 65] | > 90%
40 | FC(F)(F)Oc1cccc(Oc2ncc(-c3ccc(C(F)(F)F)nn3)cn2)c1 [Example 67] | > 90%
41 | COc1ccc(-c2cnc(Oc3cccc(F)c3F)nc2)nn1 [Example 68] | > 90%
42 | CC(C)(O)c1ccc(-c2cnc(Oc3ccccc3)nc2)nn1 [Example 69, 2-(6-(2-Phenoxypyrimidin-5-Yl)Pyridazin-3-Yl) Propan-2-Ol] | > 90%
43 | Cc1ccc(-c2cnc(Oc3ccccc3)nc2)c(C)n1 [Example 70] | > 90%
44 | COc1ccc(-c2cnc(Oc3cccc(Cl)c3)nc2)nn1 [Example 71] | > 90%
45 | OCc1ccc(-c2cnc(Oc3ccccc3)nc2)nn1 [Example 72, (6-(2-Phenoxypyrimidin-5-Yl)Pyridazin-3-Yl) Methanol] | > 90%
46 | COc1ccc(-c2cnc(Oc3cccc(C#N)c3)nc2)nn1 [Example 73] | > 90%
47 | Nc1nccc(-c2cnc(Oc3ccccc3)nc2)n1 [Example 75] | > 90%
48 | Cc1ncccc1-c1cnc(Oc2cccc(C(F)(F)F)c2)nc1 [Example 76] | > 90%
49 | Cc1ncccc1-c1cnc(Oc2cccc(OC(F)(F)F)c2)nc1 [Example 77] | > 90%
50 | Nc1cc(-c2cnc(Oc3cccc(F)c3)nc2)ccn1 [Example 78] | > 90%
51 | Nc1cc(-c2cnc(Oc3ccc(F)cc3)nc2)ccn1 [Example 79] | > 90%
52 | Nc1cc(-c2cnc(Oc3ccccc3F)nc2)ccn1 [Example 80] | > 90%
53 | Nc1cc(-c2cnc(Oc3cccc(C(F)(F)F)c3)nc2)ccn1 [Example 81] | > 90%

Row | Structure (SMILES) | inhibition in vivo at 30 mg/kg
54 | Nc1cc(-c2cnc(Oc3cc(F)cc(F)c3)nc2)ccn1 [Example 82] | > 90%
55 | Nc1cc(-c2cnc(Oc3cccc(OC(F)(F)F)c3)nc2)ccn1 [Example 83] | > 90%
56 | Nc1ccc(-c2cnc(Oc3cc(F)ccc3F)nc2)cn1 [Example 84, 5-(2-(2,5-Difluorophenoxy)Pyrimidin-5-Yl)Pyridin-2-Amine] | > 90%
57 | Nc1ccc(-c2cnc(Oc3ccc(F)c(F)c3)nc2)cn1 [Example 85] | > 90%
58 | Nc1ccc(-c2cnc(Oc3ccc(F)cc3F)nc2)cn1 [Example 86] | > 90%
59 | Nc1ccc(-c2cnc(Oc3cccc(F)c3F)nc2)cn1 [Example 87] | > 90%
60 | Cc1cccc(Oc2ncc(-c3ccc(N)nc3)cn2)c1 [Example 88, 5-(2-(m-Tolyloxy)Pyrimidin-5-Yl)Pyridin-2-Amine] | > 90%
61 | N#Cc1cccc(Oc2ncc(-c3ccc(N)nc3)cn2)c1 [Example 89] | > 90%
62 | O=C1CCC(c2cnc(Oc3cccc(F)c3)nc2)=NN1 [Example 94, 6-(2-(3-Fluorophenoxy)Pyrimidin-5-Yl)-4,5-Dihydropyridazin-3 (2H)-One] | > 90%
63 | O=C1CCC(c2cnc(Oc3ccccc3F)nc2)=NN1 [Example 96] | > 90%
64 | O=C1CCC(c2cnc(Oc3cccc(C(F)(F)F)c3)nc2)=NN1 [Example 100] | > 90%
65 | O=C1CCC(c2cnc(Oc3c(F)cccc3F)nc2)=NN1 [Example 104] | > 90%
66 | O=C1CCC(c2cnc(Oc3cc(F)cc(F)c3)nc2)=NN1 [Example 105] | > 90%
67 | O=c1ccc(-c2cnc(Oc3cc(F)ccc3F)nc2)n[nH]1 [Example 108] | > 90%
68 | O=c1ccc(-c2cnc(Oc3ccc(F)cc3F)nc2)n[nH]1 [Example 109] | > 90%
69 | O=c1ccc(-c2cnc(Oc3cccc(F)c3F)nc2)n[nH]1 [Example 110] | > 90%
70 | O=c1ccc(-c2cnc(Oc3cccc(Cl)c3)nc2)n[nH]1 [Example 111] | > 90%
71 | N#Cc1cccc(Oc2ncc(-c3ccc(=O)[nH]n3)cn2)c1 [Example 112] | > 90%
72 | O=c1[nH]nccc1-c1cnc(Oc2cccc(F)c2)nc1 [Example 115] | > 90%
73 | O=c1cc(-c2cnc(Oc3ccccc3)nc2)cn[nH]1 [Example 116] | > 90%
74 | O=c1[nH]nccc1-c1cnc(Oc2ccccc2F)nc1 [Example 117] | > 90%
75 | Fc1ccccc1Oc1ncc(-c2ccc3nccn3n2)cn1 [Example 124] | > 90%
